Test results taken from ChEMBL document CHEMBL4602665, “Amphiepicoccins A-J: Epipolythiodioxopiperazines from the Fish-Gill-Derived Fungus Epicoccum nigrum HDN17-88” (J Nat Prod, 2020).
Converted amounts (≈) assume the structure as drawn.

system: Human alphaherpesvirus 2; assay: Antiviral activity against Herpes simplex virus 2 infected in African green monkey Vero cells assessed as inhibition of virus-induced cytopathogenic effect after 24 hrs by crystal violet staining based assay; type: functional, organism-based; conditions: Human alphaherpesvirus 2, Vero

SMILES | IC50 [µM]
CS[C@@]12C[C@H]3C(=O)C=C[C@H](O)[C@H]3N1C(=O)[C@@]13C[C@H]4C(=O)C[C@@H](SS1)[C@H](O)[C@H]4N3C2=O | 64
CO[C@H]1CC(=O)[C@@H]2C[C@@]3(SC)C(=O)N4[C@@H]5[C@@H](O)[C@H]6CC(=O)[C@@H]5C[C@@]4(S6)C(=O)N3[C@@H]2[C@H]1O | 29

Further lines, results first:

IC50 [µM] | SMILES
70 | O=C1C[C@H]2SS[C@@]34C[C@@H]1[C@@H]([C@H]2O)N3C(=O)c1cc2cc(O)ccc2n1C4=O
31 | Nc1nc2c(ncn2COCCO)c(=O)[nH]1 [ACYCLOVIR]

system: Bacillus subtilis; assay: Growth inhibition of Bacillus subtilis; type: functional; conditions: not given

MIC [µM] | SMILES
25 (≈ 11.7 µg/mL) | CO[C@H]1CC(=O)[C@@H]2C[C@@]3(SC)C(=O)N4[C@@H]5[C@@H](O)[C@H]6CC(=O)[C@@H]5C[C@@]4(S6)C(=O)N3[C@@H]2[C@H]1O
13 (≈ 6.51 µg/mL) | CO[C@H]1CC(=O)[C@@H]2C[C@@]3(SC)C(=O)N4[C@@H]5[C@@H](O)[C@H]6CC(=O)[C@@H]5C[C@@]4(SS6)C(=O)N3[C@@H]2[C@H]1O
